In patent US20090298878A1, “OXIME COMPOUNDS AND THE USE THEREOF” (priority 2006, published 2009):
Where a name gives a salt, the structure may show the parent alone.

How the values were obtained:
[1] = target: T1, N-type calcium channel (NTCC) (Homo sapiens, UniProt Q00975); assay: FLIPR calcium mobilization assay for N-type calcium channel (differentiated IMR32 cells); assay type: cell-based; settings: calcium mobilization in vitro assay, N-type calcium channel blockers
T1 construct: host or cells: IMR32 cells differentiated with dibutyryl cAMP and bromodeoxyuridine
Method in brief: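 Human IMR32 cells differentiated 8 days (1 mM dibutyryl cAMP, 2.5 μM BrdU), pre-stimulated 1 h with 90 mM KCl plus compound (~846 pM–17 μM) and 5 μM nitrendipine, Fluo-4 loaded. FLIPR read basal fluorescence 315 s, then 90 mM KCl agonist added and fluorescence recorded 45 s; non-linear regression.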

[2] = target: T2, L-type calcium channel (LTCC) subunits (α1c, α2δ, and β1) (Rattus norvegicus, UniProt P22002); assay: FLIPR calcium mobilization assay for L-type calcium channel (HEK293 cells expressing recombinant rat LTCC subunits); assay type: cell-based; settings: calcium mobilization in vitro assay, L-type calcium channel blockers
T2 construct: expressed in transfected cells; pcDNA6.2DEST for α1c, pcDNA3.2DEST for β1, pcDNA3.1-Zeo for α2δ
Description: Recombinant human embryonal kidney cells (HEK293, ATCC) stably transfected with either N-type calcium channel (NTCC) subunits (α1b, α2δ, and β3) or L-type calcium channel (LTCC) subunits (α1c, α2δ, and β1) were routinely cultured in growth medium consisting of Dulbecco's Modified Eagles Medium containing 10% FBS, 100 U/mL penicillin, 100 μg/mL streptomycin, 4 mM L-glutamine, 500 μg/mL geneticin (G418), 20 μg/mL Blasticidin S (InVivogen, San Diego, Calif.) and 500 μg/mL zeocin (InVivogen).
FLIPR Calcium Mobilization Assay for L-type Calcium Channel. One day prior to performing this assay, HEK293 cells stably expressing recombinant rat L-type calcium channel (LTCC) subunits (α1c, α2δ, and β1) were trypsinized, then seeded on poly-D-lysine-coated 96-well clear-bottom black plates (Becton Dickinson, Franklin Lakes, N.J.) at 75,000 cells/well. On the day of the assay, the plates were washed with LTCC wash buffer (127 mM NaCl, 2 mM MgCl2, 700 μM NaH2PO4, […], 5 mM NaHCO3, 8 mM HEPES, 10 mM glucose, pH 7.4), then loaded with 0.1 mL of LTCC wash buffer containing Fluo-4 (3 μM final concentration, Molecular Probes, Eugene, Oreg.). After 1 hour, the cells were washed with 0.1 mL LTCC wash buffer and resuspended in 0.05 mL LTCC assay buffer (same composition as LTCC wash buffer). Plates were then transferred to a FLIPR^96 for assay. The FLIPR measured basal Fluo-4 fluorescence for 15 seconds, then added 0.05 mL of each compound tested diluted in LTCC assay buffer at final concentrations ranging from about 846 pM to about 17 μM. Fluo-4 fluorescence was then measured for 5 minutes. 0.1 mL KCl agonist dissolved in LTCC assay buffer was then added to the cells to produce a final concentration of 90 mM KCl, and fluorescence was measured for another 45 seconds. Data were collected over the entire time course and analyzed using Excel, Graph Pad Prism, or an in-house regression analysis software.
Cloning of N- and L-type calcium channel subunit open reading frame cDNAs. Five cDNAs encoding subunits of the rat N- or L-type calcium channels were cloned by PCR amplification in order to reconstitute functional channels in a heterologous system. These were the alpha1b (α1b), beta1 (β1), beta3 (β3), alpha2delta (α2δ), and alpha1c (α1c) subunit cDNAs. The alpha1b subunit cDNA has been described by Dubel et al. in Proc. Natl. Acad. Sci. U.S.A 89: 5058-5062 (1992). The beta1 subunit cDNA has been described by Pragnell et al. in FEBS Lett. 291: 253-258 (1991). The beta3 subunit cDNA has been described by Castellano et al. in J. Biol. Chem. 268: 12359-12366 (1993). The alpha2delta subunit cDNA has been described by Kim et al. in Proc. Natl. Acad. Sci. U.S.A. 89: 3251-3255 (1992). The alpha1c subunit cDNA has been described by Koch et al. in J. Biol. Chem. 265: 17786-17791 (1990).
The 6.5 kb cDNA encoding the L-type calcium channel α1c subunit was cloned by PCR amplification from rat heart cDNA using primers 11 (SEQ ID NO: 11, TABLE 1) and 12 (SEQ ID NO:12, TABLE 1). The PCR fragment was subcloned and fully sequenced on both strands to confirm its identity. A clone matching consensus reference sequence M59786 and rat genomic DNA sequences was recombined into the mammalian expression vector pcDNA6.2DEST. Sequences around the recombinogenic region were sequenced to confirm accurate recombination into the expression vector.
L-type Recombinant Cell Line Development. L-type calcium channel expressing HEK-293 cells were created in two stages. Stage 1 was created as follows. The rat α1c, and β1 cDNA expression constructs (2.5 μg each) were co-transfected into human embryonic kidney (HEK-293) cells by Lipofectamine Plus reagent (Invitrogen), as per manufacturer's instructions. 24 hours later, cells were split in limiting dilution into multiple 96-well plates in selection media containing 20 μg/mL blasticidin and 500 μg/mL geneticin, and incubated for 3 weeks at 37° C., 5% CO2, 95% humidity. […]

T2 sequence (P22002 whole entry): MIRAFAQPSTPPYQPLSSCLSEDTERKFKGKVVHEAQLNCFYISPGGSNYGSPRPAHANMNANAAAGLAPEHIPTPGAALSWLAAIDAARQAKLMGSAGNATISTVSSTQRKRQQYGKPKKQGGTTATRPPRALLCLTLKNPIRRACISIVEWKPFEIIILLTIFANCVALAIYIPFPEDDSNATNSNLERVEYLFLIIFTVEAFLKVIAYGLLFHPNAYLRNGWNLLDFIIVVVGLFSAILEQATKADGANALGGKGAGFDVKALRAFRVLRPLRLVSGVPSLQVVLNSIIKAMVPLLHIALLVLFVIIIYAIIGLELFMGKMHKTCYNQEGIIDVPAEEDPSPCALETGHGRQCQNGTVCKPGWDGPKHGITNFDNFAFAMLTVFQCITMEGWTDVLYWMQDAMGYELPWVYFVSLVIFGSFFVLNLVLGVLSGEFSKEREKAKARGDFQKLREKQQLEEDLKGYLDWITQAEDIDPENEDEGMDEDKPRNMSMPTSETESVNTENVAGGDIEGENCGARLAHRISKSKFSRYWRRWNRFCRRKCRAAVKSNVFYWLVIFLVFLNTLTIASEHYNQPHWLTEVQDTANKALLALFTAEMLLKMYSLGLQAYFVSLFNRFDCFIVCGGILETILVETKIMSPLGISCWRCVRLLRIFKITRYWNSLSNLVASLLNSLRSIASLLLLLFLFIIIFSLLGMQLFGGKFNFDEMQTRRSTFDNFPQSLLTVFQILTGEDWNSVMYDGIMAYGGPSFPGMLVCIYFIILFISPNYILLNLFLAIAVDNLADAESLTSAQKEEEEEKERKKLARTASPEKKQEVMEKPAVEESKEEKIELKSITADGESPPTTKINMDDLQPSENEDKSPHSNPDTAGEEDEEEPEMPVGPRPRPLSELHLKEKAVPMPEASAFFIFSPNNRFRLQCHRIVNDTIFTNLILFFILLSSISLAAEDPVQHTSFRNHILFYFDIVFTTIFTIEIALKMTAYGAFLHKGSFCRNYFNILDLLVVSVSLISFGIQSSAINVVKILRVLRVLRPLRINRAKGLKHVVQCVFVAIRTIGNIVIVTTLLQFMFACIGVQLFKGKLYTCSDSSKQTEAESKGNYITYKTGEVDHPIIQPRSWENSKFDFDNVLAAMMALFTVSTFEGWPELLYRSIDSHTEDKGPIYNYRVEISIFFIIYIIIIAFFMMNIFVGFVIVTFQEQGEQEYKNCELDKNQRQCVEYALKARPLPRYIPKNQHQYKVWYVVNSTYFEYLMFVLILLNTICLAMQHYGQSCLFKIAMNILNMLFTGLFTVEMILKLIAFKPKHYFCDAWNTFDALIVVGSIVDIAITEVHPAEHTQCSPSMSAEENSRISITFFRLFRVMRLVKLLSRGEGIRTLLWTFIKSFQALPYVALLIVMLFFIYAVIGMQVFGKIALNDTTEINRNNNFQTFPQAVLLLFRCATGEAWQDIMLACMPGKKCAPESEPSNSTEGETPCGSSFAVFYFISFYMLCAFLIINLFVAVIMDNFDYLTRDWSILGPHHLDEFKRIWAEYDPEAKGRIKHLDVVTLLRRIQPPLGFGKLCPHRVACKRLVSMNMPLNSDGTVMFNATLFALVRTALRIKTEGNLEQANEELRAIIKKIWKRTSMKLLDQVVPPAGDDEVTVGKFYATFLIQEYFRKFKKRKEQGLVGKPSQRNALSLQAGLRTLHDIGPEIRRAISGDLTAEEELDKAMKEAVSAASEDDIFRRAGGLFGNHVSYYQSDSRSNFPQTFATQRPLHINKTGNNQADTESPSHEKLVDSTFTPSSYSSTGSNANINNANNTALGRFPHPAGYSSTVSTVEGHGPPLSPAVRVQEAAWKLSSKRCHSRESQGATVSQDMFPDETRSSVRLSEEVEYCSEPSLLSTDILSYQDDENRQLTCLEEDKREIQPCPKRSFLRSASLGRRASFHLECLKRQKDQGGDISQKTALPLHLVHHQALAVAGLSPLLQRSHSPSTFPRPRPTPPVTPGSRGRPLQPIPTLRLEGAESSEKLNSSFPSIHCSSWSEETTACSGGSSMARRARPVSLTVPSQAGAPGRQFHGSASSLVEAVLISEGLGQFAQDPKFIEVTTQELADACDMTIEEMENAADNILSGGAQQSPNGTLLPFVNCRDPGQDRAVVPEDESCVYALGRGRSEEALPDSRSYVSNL
T1 sequence (Q00975 whole entry): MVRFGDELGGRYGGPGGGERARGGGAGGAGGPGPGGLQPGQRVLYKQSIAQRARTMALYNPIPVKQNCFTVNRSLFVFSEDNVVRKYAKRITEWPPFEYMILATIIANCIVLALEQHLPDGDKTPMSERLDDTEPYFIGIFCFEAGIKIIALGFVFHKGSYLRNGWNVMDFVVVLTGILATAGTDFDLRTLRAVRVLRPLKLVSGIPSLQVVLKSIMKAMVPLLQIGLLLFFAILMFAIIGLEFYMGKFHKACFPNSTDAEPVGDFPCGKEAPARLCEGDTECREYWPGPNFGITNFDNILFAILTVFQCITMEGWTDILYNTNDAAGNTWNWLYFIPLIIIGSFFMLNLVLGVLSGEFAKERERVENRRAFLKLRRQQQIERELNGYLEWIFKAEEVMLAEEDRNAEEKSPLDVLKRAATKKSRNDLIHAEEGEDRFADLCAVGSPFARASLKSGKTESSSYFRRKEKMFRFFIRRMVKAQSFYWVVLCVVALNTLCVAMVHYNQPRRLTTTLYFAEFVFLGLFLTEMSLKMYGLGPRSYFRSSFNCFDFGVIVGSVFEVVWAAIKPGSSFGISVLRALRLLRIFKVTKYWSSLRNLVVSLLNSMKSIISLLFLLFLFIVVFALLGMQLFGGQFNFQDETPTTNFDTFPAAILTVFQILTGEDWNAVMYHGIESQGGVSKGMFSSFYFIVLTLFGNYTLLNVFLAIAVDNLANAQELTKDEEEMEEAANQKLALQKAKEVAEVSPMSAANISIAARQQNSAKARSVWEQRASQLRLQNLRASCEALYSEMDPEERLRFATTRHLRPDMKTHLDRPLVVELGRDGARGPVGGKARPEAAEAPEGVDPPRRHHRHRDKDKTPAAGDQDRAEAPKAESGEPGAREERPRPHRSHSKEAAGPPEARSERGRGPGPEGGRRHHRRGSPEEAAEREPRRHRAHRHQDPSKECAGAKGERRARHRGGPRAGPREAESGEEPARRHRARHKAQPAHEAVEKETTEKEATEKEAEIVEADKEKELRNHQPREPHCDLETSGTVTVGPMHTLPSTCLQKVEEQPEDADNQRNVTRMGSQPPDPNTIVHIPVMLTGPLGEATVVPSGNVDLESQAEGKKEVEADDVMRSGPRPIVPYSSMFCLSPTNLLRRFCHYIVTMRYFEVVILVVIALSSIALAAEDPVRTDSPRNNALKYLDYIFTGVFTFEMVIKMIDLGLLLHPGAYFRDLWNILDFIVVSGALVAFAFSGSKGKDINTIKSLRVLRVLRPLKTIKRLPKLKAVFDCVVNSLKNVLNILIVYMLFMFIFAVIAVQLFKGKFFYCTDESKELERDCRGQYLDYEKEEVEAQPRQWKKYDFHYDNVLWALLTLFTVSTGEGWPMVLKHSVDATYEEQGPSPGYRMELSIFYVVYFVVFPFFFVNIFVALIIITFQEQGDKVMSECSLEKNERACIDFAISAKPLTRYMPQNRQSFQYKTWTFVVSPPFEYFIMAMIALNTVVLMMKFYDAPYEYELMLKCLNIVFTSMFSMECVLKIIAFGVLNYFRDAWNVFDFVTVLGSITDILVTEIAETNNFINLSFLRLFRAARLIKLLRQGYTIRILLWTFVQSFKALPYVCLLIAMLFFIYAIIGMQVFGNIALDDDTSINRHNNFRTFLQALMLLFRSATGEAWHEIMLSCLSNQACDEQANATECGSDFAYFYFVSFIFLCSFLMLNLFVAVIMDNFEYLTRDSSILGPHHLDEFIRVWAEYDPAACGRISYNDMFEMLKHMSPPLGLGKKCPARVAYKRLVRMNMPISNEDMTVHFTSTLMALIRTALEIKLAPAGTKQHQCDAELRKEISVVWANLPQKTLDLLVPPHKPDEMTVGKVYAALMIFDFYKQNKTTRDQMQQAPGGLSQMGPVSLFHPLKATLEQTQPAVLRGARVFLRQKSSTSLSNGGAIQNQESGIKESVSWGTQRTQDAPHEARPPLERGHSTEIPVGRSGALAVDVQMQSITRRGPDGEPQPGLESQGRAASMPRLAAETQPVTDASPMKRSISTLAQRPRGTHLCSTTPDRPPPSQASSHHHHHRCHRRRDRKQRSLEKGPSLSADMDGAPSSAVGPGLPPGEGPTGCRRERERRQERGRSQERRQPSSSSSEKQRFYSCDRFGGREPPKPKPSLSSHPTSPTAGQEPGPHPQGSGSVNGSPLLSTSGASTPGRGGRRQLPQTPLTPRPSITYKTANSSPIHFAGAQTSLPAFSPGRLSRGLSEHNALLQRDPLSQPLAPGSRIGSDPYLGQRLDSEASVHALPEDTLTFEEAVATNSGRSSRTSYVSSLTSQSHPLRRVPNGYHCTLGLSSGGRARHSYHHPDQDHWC

| IC50 [1] [nM] | IC50 [2] [nM] | SMILES |
| --- | --- | --- |
| 820 | > 20000 | Fc1ccc(C(CCCN2CCC(=NOCc3cccc(C(F)(F)F)c3)CC2)c2ccc(F)cc2)cc1 [Example 12, 1-[4,4-Bis-(4-fluorophenyl)butyl]piperidin-4-one O-(3-trifluoromethylbenzyl)oxime oxalate] |
| 760 | 4900 | O=C(CCC(c1ccc(F)cc1)c1ccc(F)cc1)N1CCC(=NOCc2ccncc2)CC1 [Example 19, 1-[4,4-Bis-(4-fluorophenyl)butyryl]piperidin-4-one O-pyridin-4-ylmethyloxime oxalate] |
| 610 | > 20000 | O=S(=O)(c1cccc(C(F)(F)F)c1)N1CCC(=NOCC2CCCCC2)CC1 [Example 277, 1-(3-(Trifluoromethyl)phenylsulfonyl)piperidin-4-one O-cyclohexylmethyl oxime] |
| 690 | 9600 | CC(C)C[C@H](N)C(=O)N1CCC(=NOCc2cccc(C(F)(F)F)c2)CC1 [Example 8, 1-((S)-2-Amino-4-methylpentanoyl)piperidin-4-one O-(3-trifluoromethylbenzyl)oxime hydrochloride] |
| 160 | > 20000 | O=c1ccc(CON=C2CCN(S(=O)(=O)c3ccc(OC(F)(F)F)cc3)CC2)cn1Cc1ccc(F)cc1 [Example 295, 1-(4-Fluorobenzyl)-5-((1-(4-(trifluoromethoxy)phenylsulfonyl)piperidin-4-ylideneaminooxy)methyl)pyridin-2(1H)-one] |
| 690 | > 20000 | N#Cc1cc(CON=C2CCN(C(c3ccc(F)cc3)c3ccc(F)cc3)CC2)ccc1F [Example 182, 5-((1-(Bis(4-fluorophenyl)methyl)piperidin-4-ylideneaminooxy)methyl)-2-fluorobenzonitrile hydrochloride] |
| 260 | 6600 | Fc1ccc(C(CCCN2CCC(=NOCc3cccnc3)CC2)c2ccc(F)cc2)cc1 [Example 16, 1-[4,4-Bis-(4-fluorophenyl)butyl]piperidin-4-one O-pyridin-3-ylmethyloxime dioxalate] |
| 220 | > 20000 | CCCCc1ccc(S(=O)(=O)N2CCC(=NOCc3cccc(C#N)c3)CC2)cc1 [Example 77, 3-[1-(4-Butylbenzenesulfonyl)piperidin-4-ylideneaminooxymethyl]benzonitrile] |
| 80 | > 20000 | CCCCCC(C)ON=C1CCN(S(=O)(=O)c2cccc(C(F)(F)F)c2)CC1 (stereo not drawn) [Example 369, 1-(3-(Trifluoromethyl)phenylsulfonyl)piperidin-4-one O-heptan-2-yl oxime] |
